Experimental data as given in PubChem BioAssay (NCI).
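These data come from cells grown in 96-well plates and exposed to compound for 48 hours at five concentrations. TGI denotes the concentration required for complete inhibition of growth.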

Legend:
Experiment in all cases: NCI anticancer screen, dose series, 48 h
[1] = test system: 786-0 renal
[2] = test system: A498 renal
[3] = test system: A549 NSCLC
[4] = test system: ACHN renal
[5] = test system: CAKI-1 renal
[6] = test system: CCRF-CEM leukemia
[7] = test system: COLO 205 colon
[8] = test system: DLD-1 colon
[9] = test system: DMS 114 small cell lung
[10] = test system: DMS 273 small cell lung
[11] = test system: EKVX NSCLC
[12] = test system: HCC-2998 colon
[13] = test system: HCT-116 colon
[14] = test system: HCT-15 colon
[15] = test system: HL-60(TB) leukemia
[16] = test system: HOP-18 NSCLC
[17] = test system: HOP-62 NSCLC
[18] = test system: HOP-92 NSCLC
[19] = test system: HT29 colon
[20] = test system: IGROV1 ovarian
[21] = test system: K-562 leukemia
[22] = test system: KM12 colon
[23] = test system: KM20L2 colon
[24] = test system: LOX IMVI melanoma
[25] = test system: LXFL 529 NSCLC
[26] = test system: M14 melanoma
[27] = test system: M19-MEL melanoma
[28] = test system: MALME-3M melanoma
[29] = test system: MOLT-4 leukemia
[30] = test system: NCI-H226 lung
[31] = test system: NCI-H23 lung
[32] = test system: NCI-H460 lung
[33] = test system: NCI-H522 lung
[34] = test system: OVCAR-3 ovarian
[35] = test system: OVCAR-4 ovarian
[36] = test system: OVCAR-5 ovarian
[37] = test system: OVCAR-8 ovarian
[38] = test system: RPMI-8226 leukemia
[39] = test system: RXF 393 renal
[40] = test system: RXF-631 renal
[41] = test system: SF-295 CNS
[42] = test system: SF-539 CNS
[43] = test system: SK-MEL-2 melanoma
[44] = test system: SK-MEL-28 melanoma
[45] = test system: SK-MEL-5 melanoma
[46] = test system: SK-OV-3 ovarian
[47] = test system: SN12C renal
[48] = test system: SNB-19 CNS
[49] = test system: SNB-75 CNS
[50] = test system: SNB-78 CNS
[51] = test system: SR leukemia
[52] = test system: SW-620 colon
[53] = test system: TK-10 renal
[54] = test system: U251 CNS
[55] = test system: UACC-257 melanoma
[56] = test system: UACC-62 melanoma
[57] = test system: UO-31 renal
[58] = test system: XF 498 CNS
[59] = test system: SF-268 CNS

In the case of `CCCCCCCC(=O)OCC1OC(OC)C(NC(=O)N(CCCl)N=O)C(O)C1O` (stereo not drawn), the TGI [1] is reported as 22.7 µM, the TGI [2] is reported as 56.8 µM and the TGI [3] is reported as > 72.3 µM. For the same molecule, the TGI [4] was > 100 µM, the TGI [5] was 32.6 µM and the TGI [6] was 40.5 µM. For the same molecule, the TGI [7] was 30.8 µM, the TGI [8] was 28.6 µM and the TGI [9] was 29.6 µM. For the same molecule, the TGI [10] was 15.9 µM, the TGI [11] was > 83.9 µM and the TGI [12] was 30.3 µM. The TGI [13] was 15 µM, the TGI [14] was 15.5 µM and the TGI [15] was 22.3 µM. For the same molecule, the TGI [16] was 72.3 µM, the TGI [17] was 23.1 µM and the TGI [18] was 9.96 µM. For the same molecule, the TGI [19] was 50.3 µM, the TGI [20] was 67.1 µM and the TGI [21] was > 58 µM. The TGI [22] was 27.7 µM, the TGI [23] was > 59.2 µM and the TGI [24] was 23.8 µM. It also gave a TGI [25] of 42 µM, a TGI [26] of 21.6 µM and a TGI [27] of 49.2 µM. It also gave a TGI [28] of 28.5 µM, a TGI [29] of 36.1 µM and a TGI [30] of 42.1 µM. The TGI [31] was 29.4 µM, the TGI [32] was > 39.2 µM and the TGI [33] was 16 µM. For the same molecule, the TGI [34] was 47.7 µM, the TGI [35] was > 100 µM and the TGI [36] was 97.5 µM. It also gave a TGI [37] of 57.2 µM, a TGI [38] of 53.1 µM and a TGI [39] of 34.3 µM. For the same molecule, the TGI [40] was 19 µM, the TGI [41] was 33 µM and the TGI [42] was 16.5 µM. For the same molecule, the TGI [43] was > 57.2 µM, the TGI [44] was > 100 µM and the TGI [45] was 35.8 µM. The TGI [46] was 97.1 µM, the TGI [47] was 26.6 µM and the TGI [48] was > 100 µM. For the same molecule, the TGI [49] was 53.3 µM, the TGI [50] was 79.6 µM and the TGI [51] was 23.9 µM. The TGI [52] was 18.9 µM, the TGI [53] was 58 µM and the TGI [54] was > 70.1 µM. For the same molecule, the TGI [55] was 41.3 µM, the TGI [56] was 14 µM and the TGI [57] was 45.9 µM. It also gave a TGI [58] of 30.6 µM.

For `COc1ccc(OC(C(=O)O)c2ccccc2)c2c1CCCC2=O` (stereo not drawn), the TGI [1] was > 100 µM, the TGI [2] was > 100 µM and the TGI [3] was > 100 µM. The TGI [4] was > 100 µM, the TGI [5] was > 100 µM and the TGI [6] was > 100 µM. The TGI [7] was > 100 µM, the TGI [8] was > 100 µM and the TGI [9] was > 100 µM. For the same molecule, the TGI [10] was > 100 µM, the TGI [11] was > 100 µM and the TGI [12] was > 100 µM. The TGI [13] was > 100 µM, the TGI [14] was > 100 µM and the TGI [15] was > 100 µM. For the same molecule, the TGI [16] was > 100 µM, the TGI [17] was > 100 µM and the TGI [18] was > 100 µM. For the same molecule, the TGI [19] was > 100 µM, the TGI [20] was > 100 µM and the TGI [21] was > 100 µM. For the same molecule, the TGI [22] was > 100 µM, the TGI [23] was > 100 µM and the TGI [24] was > 100 µM. The TGI [25] was > 100 µM, the TGI [26] was > 100 µM and the TGI [27] was > 100 µM. For the same molecule, the TGI [28] was > 100 µM, the TGI [29] was > 100 µM and the TGI [31] was > 100 µM. The TGI [32] was > 100 µM, the TGI [33] was > 100 µM and the TGI [34] was > 100 µM. The TGI [35] was > 100 µM, the TGI [36] was > 100 µM and the TGI [37] was > 100 µM. For the same molecule, the TGI [38] was > 100 µM, the TGI [40] was > 100 µM and the TGI [59] was > 100 µM. For the same molecule, the TGI [41] was > 100 µM, the TGI [42] was > 100 µM and the TGI [43] was > 100 µM. For the same molecule, the TGI [44] was > 100 µM, the TGI [45] was > 100 µM and the TGI [46] was > 100 µM. The TGI [47] was > 100 µM, the TGI [48] was > 100 µM and the TGI [50] was > 100 µM. For the same molecule, the TGI [52] was > 100 µM, the TGI [53] was > 100 µM and the TGI [54] was > 100 µM. For the same molecule, the TGI [55] was > 100 µM, the TGI [56] was > 100 µM and the TGI [57] was > 100 µM. For the same molecule, the TGI [58] was > 100 µM.
